Experimental data as given in article PMC9021288 (Nature Communications, 2022).
Several values for one entry are separate records, joined by “and”; a condition that tells them apart may be missing. Equal entries are not always repeated.

How the values were obtained:
[1] = Plasma protein binding, human
hERG channel = molecular target: T1, hERG channel (Homo sapiens, UniProt Q12809); test: Automated patch clamp (Qpatch); format: cell-based
T1 construct: Metrion Biosciences
Method: (§1) Safety studies were performed by commercial services using their standard protocols. […] Genotoxicity was investigated using the Ames test (Bacterial Reverse Mutation Assay) (Covance Laboratories Ltd, North Yorkshire, England). In vitro mammalian cell micronucleus screening assay was studied in human peripheral blood lymphocytes (BioReliance Corporation, Rockville, USA). Cardiotoxicity was determined against the hERG channel in an automated patch clamp assay using the Qpatch or against the hNaV 1.5, hKV 1.5 and hCaV 1.2 using a manual patch-clamp technique (Metrion Biosciences, Cambridge, UK). Cytotoxicity in human and rat primary hepatocytes was assessed using the CellTiter-Blue assay performed by commercial services (KaLy-Cell). The viability of HepG2 cells was monitored through the addition of 1 mM resazurin. Following 6 h incubation, the relative amount of reduced resazurin was detected in a fluorimeter and compared to the assay controls (vehicle: 0.1% DMSO and positive control: 10 µM puromycin).

HepG2 cells = test: HepG2 viability (resazurin); settings: for HepG2 viability assay, normalised to controls / HepG2 viability assay, raw signal: replicate 1, replicate 2
Method: as §1

3-day MTD2 rat study = format: in vivo, Wistar Han rats; settings: 300, 600, 1000 mg/kg/day, three days
From the text: (§2) See the summary of the study design in Supplementary Table 31. Nine-week-old Wistar (Crl:WI (Han)) rats were obtained from Charles River Laboratories (Domaine des Oncins, Saint-Germain-Nuelles, France). […] Animals were examined daily for any altered clinical signs, body weights, and food consumption. Blood samples were taken at different timepoints after the test item administration, and toxicokinetic exposure assessed under the defined experimental conditions and analyzed using Phoenix (version 6.4 and 1.4) (Supplementary Table 32). Measurements included hematology and clinical chemistry measurements. Animals were euthanized and necropsied at the end of the dosing period. At necropsy, major organ systems and tissues were collected and weighed and then examined for gross lesions as well as for microscopic changes.

[2] = 7-day PK toxicity rat study; format: in vivo, Wistar Han rats; set-up: AUC(0 - t) / Cmax / Concentration (PK study): unit not given here
From the text: as §2

[3] = Population PK model in NSG mice; format: in vivo, female NSG mice; settings: population PK model estimate
Method: The experimental designs are summarized in Supplementary Table 30. […] Samples were processed under liquid-liquid extraction methods and analyzed by LC-MS/MS for quantitation in a Waters UPLC-TQD (Micromass, Manchester, UK).
Data preparation, exploration and model pre- and postprocessing were performed using R (version 3.6.3) and R package IQRtools (version 1.2.1 IntiQuan GmbH). Non-linear mixed-effects (NLME) modeling was used to estimate the PK and PD parameters using Monolix (Lixoft version MLX2018R2). The population PKPD model was developed with a two-stage approach: first, a population PK model was determined; then, the individual PK parameters were used as regression parameters and the PD parameters were estimated. The PD model consists of the balance between a parasite net growth rate and a drug killing rate. […] The growth rate of log-transformed parasite concentration was fixed at 0.03 /h based on prior experiments but estimating growth rate interindividual variability. Different Hill coefficients were tested.

[4] = tested on: P. falciparum Dd2-B2 and NF54-HGL; test: In vitro selection of drug-resistant parasites; format: cell-based, Plasmodium falciparum
Method: Drug media was changed daily until cultures were cleared and every other day subsequently. […] Recrudescence was monitored by flow cytometry on an Accuri C6 (BD Biosciences) using BD C6 Plus for 60 days using SYBR Green and MitoTracker Deep Red FM (Life Technologies) as nuclear stain and vital dye, respectively, and data were analyzed using FlowJo (Supplementary Fig. 23). […] Whole-genome sequencing was performed to test for single nucleotide polymorphisms (SNPs) or copy number variations.

T1 sequence (Q12809 whole entry): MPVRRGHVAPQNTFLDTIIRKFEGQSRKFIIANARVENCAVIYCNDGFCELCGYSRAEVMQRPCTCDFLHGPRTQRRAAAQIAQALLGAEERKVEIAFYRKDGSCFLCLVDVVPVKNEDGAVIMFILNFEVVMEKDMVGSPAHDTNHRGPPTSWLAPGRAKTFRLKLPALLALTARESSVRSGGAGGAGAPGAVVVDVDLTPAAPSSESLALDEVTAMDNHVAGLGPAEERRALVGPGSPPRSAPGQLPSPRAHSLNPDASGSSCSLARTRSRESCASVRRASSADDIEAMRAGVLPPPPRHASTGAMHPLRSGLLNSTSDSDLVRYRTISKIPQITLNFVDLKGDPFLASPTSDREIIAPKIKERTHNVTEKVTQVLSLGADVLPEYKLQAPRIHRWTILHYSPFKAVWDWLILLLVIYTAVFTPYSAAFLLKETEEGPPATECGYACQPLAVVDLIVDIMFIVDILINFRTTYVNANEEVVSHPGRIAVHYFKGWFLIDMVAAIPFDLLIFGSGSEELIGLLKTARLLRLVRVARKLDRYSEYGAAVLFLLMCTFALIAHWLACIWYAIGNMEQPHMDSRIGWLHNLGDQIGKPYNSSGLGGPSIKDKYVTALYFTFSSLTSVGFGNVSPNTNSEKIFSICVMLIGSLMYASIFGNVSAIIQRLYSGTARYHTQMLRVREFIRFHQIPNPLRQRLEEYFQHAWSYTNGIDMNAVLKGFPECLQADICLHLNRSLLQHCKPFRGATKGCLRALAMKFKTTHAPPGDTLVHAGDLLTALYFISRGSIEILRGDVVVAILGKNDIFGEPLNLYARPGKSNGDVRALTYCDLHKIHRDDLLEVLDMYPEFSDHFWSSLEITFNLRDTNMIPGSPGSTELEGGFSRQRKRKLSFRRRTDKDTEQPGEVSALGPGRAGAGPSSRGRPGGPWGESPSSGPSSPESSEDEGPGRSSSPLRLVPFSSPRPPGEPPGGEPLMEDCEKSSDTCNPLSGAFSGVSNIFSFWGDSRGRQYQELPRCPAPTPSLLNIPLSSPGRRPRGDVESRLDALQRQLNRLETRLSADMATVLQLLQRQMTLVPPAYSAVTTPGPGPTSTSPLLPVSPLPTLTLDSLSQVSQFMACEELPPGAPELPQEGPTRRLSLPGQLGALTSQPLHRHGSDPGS

C[C@@H](CNC(=O)[C@H](O)C(C)(C)CO)NC(=O)c1cc(F)c(F)cc1F [MMV693183]
plasma protein binding [1]: 52%
IC50 (hERG channel): > 10 µM
HepG2 viability assay, normalised to controls (HepG2 cells; log concentration (M) -5): 96% and 104%
HepG2 viability assay, raw signal (HepG2 cells; log concentration (M) -5): 10734 and 11536
HepG2 viability assay, normalised to controls (HepG2 cells; log concentration (M) -5.5): 103% and 105%
HepG2 viability assay, raw signal (HepG2 cells; log concentration (M) -5.5): 11483 and 11722
HepG2 viability assay, normalised to controls (HepG2 cells; log concentration (M) -6): 105% and 100%
HepG2 viability assay, raw signal (HepG2 cells; log concentration (M) -6): 11668 and 11173
HepG2 viability assay, normalised to controls (HepG2 cells; log concentration (M) -6.5): 103% and 102%
HepG2 viability assay, raw signal (HepG2 cells; log concentration (M) -6.5): 11442 and 11328
HepG2 viability assay, normalised to controls (HepG2 cells; log concentration (M) -7): 100% and 101%
HepG2 viability assay, raw signal (HepG2 cells; log concentration (M) -7): 11114 and 11207
HepG2 viability assay, normalised to controls (HepG2 cells; log concentration (M) -7.5): 104% and 107%
HepG2 viability assay, raw signal (HepG2 cells; log concentration (M) -7.5): 11575 and 11909
HepG2 viability assay, normalised to controls (HepG2 cells; log concentration (M) -8): 105% and 102%
HepG2 viability assay, raw signal (HepG2 cells; log concentration (M) -8): 11700 and 11315
HepG2 viability assay, normalised to controls (HepG2 cells; log concentration (M) -8.5): 105% and 101%
HepG2 viability assay, raw signal (HepG2 cells; log concentration (M) -8.5): 11684 and 11300
HepG2 viability assay, normalised to controls (HepG2 cells; log concentration (M) -9): 109%
HepG2 viability assay, raw signal (HepG2 cells; log concentration (M) -9): 12138 and 12106
IC50 (HepG2 cells; read-out: IC50 viability, HepG2): > 10 µM
toxicity (3-day MTD2 rat study): no relevant toxicity was observed
mortality ([2]; 60, 200 mg/kg/day, 7 days): no mortality occurred
Liver weight ([2]; PK 60 mg/kg/day, Females): 6.5972 g
Liver weight ([2]; PK 60 mg/kg/day, Males): 11.4290 g
Liver weight ([2]; PK 200 mg/kg/day, Females): 8.4371 g
Liver weight ([2]; PK 200 mg/kg/day, Males): 13.5439 g
Concentration (PK study) ([2]; PK study, Females 60 mg/kg/day, Day 4, 8 hr): 867 and 896 and 826
Concentration (PK study) ([2]; PK study, Females 60 mg/kg/day, Day 5, 8 hr): 531 and 997 and 950
Concentration (PK study) ([2]; PK study, Females 60 mg/kg/day, Day 6, 8 hr): 642 and 776
Concentration (PK study) ([2]; PK study, Females 60 mg/kg/day, Day 7, 8 hr): 936 and 1060 and 1050
Concentration (PK study) ([2]; PK study, Females 200 mg/kg/day, Day 1, 0.5 hr): 81400 and 80500 and 68400
Concentration (PK study) ([2]; PK study, Females 200 mg/kg/day, Day 1, 1 hr): 65500 and 65700 and 66800
Concentration (PK study) ([2]; PK study, Females 200 mg/kg/day, Day 1, 4 hr): 12200 and 17800 and 10500
Concentration (PK study) ([2]; PK study, Females 200 mg/kg/day, Day 3, 0.5 hr): 70400 and 75700 and 61100
Concentration (PK study) ([2]; PK study, Females 200 mg/kg/day, Day 3, 2 hr): 18000 and 10900 and 12000
Concentration (PK study) ([2]; PK study, Females 200 mg/kg/day, Day 3, 8 hr): 2420 and 2030 and 1670
Concentration (PK study) ([2]; PK study, Females 200 mg/kg/day, Day 4, 0.5 hr): 47900 and 69400 and 35700
Concentration (PK study) ([2]; PK study, Females 200 mg/kg/day, Day 4, 8 hr): 1340 and 729 and 914
Concentration (PK study) ([2]; PK study, Females 200 mg/kg/day, Day 4, 24 hr): LLoQ
Concentration (PK study) ([2]; PK study, Females 200 mg/kg/day, Day 5, 2 hr): 3640 and 1960 and 3540
Concentration (PK study) ([2]; PK study, Females 200 mg/kg/day, Day 5, 24 hr): LLoQ
Concentration (PK study) ([2]; PK study, Females 200 mg/kg/day, Day 6, 0.5 hr): 17200 and 19900 and 13800
Concentration (PK study) ([2]; PK study, Females 200 mg/kg/day, Day 6, 1 hr): 5360 and 3620 and 4830
Concentration (PK study) ([2]; PK study, Females 200 mg/kg/day, Day 6, 2 hr): 2060 and 2560
Concentration (PK study) ([2]; PK study, Females 200 mg/kg/day, Day 6, 4 hr): 1070 and 1300 and 1240
Concentration (PK study) ([2]; PK study, Females 200 mg/kg/day, Day 6, 24 hr): LLoQ
Concentration (PK study) ([2]; PK study, Females 200 mg/kg/day, Day 7, 0.5 hr): 16600 and 15200 and 10900
Concentration (PK study) ([2]; PK study, Females 200 mg/kg/day, Day 7, 1 hr): 7160 and 4910 and 4560
Concentration (PK study) ([2]; PK study, Females 200 mg/kg/day, Day 7, 8 hr): 446 and 524 and 294
Concentration (PK study) ([2]; PK study, Females 200 mg/kg/day, Day 7, 24 hr): LLoQ
Concentration (PK study) ([2]; PK study, Males 60 mg/kg/day, Day 1, 1 hr): 20300 and 24600 and 25700
Concentration (PK study) ([2]; PK study, Males 60 mg/kg/day, Day 1, 2 hr): 8920
Concentration (PK study) ([2]; PK study, Males 60 mg/kg/day, Day 1, 8 hr): 595 and 761 and 549
Concentration (PK study) ([2]; PK study, Males 60 mg/kg/day, Day 3, 0.5 hr): 8790 and 10300 and 7140
Concentration (PK study) ([2]; PK study, Males 60 mg/kg/day, Day 3, 1 hr): 5740 and 6580 and 9120
Concentration (PK study) ([2]; PK study, Males 60 mg/kg/day, Day 4, 1 hr): 4970 and 6410 and 5310
Concentration (PK study) ([2]; PK study, Males 60 mg/kg/day, Day 4, 2 hr): 2150
Concentration (PK study) ([2]; PK study, Males 60 mg/kg/day, Day 5, 0.5 hr): 4090 and 5780 and 6430
Concentration (PK study) ([2]; PK study, Males 60 mg/kg/day, Day 5, 1 hr): 2810 and 3810 and 4490
Concentration (PK study) ([2]; PK study, Males 60 mg/kg/day, Day 5, 2 hr): 833
Concentration (PK study) ([2]; PK study, Males 60 mg/kg/day, Day 6, 0.5 hr): 3190 and 3990 and 2700
Concentration (PK study) ([2]; PK study, Males 60 mg/kg/day, Day 6, 1 hr): 2440 and 2560 and 2960
Concentration (PK study) ([2]; PK study, Males 60 mg/kg/day, Day 6, 2 hr): 793
Concentration (PK study) ([2]; PK study, Males 60 mg/kg/day, Day 7, 0.5 hr): 4630 and 4120 and 3030
Concentration (PK study) ([2]; PK study, Males 60 mg/kg/day, Day 7, 1 hr): 2360 and 3070 and 4490
Concentration (PK study) ([2]; PK study, Males 60 mg/kg/day, Day 7, 2 hr): 852
Liver weight ([2]; PK study, females, 60 mg/kg/day, individual animals): 7.845 g and 6.555 g and 7.19 g and 6.045 g and 7.197 g and 6.726 g and 6.103 g and 6.171 g and 6.163 g and 5.278 g and 7.062 g and 7.17 g and 6.744 g and 6.318 g and 6.169 g and 6.575 g and 6.983 g and 6.456 g
Liver weight ([2]; PK study, females, 200 mg/kg/day, individual animals): 8.221 g and 8.493 g and 7.964 g and 8.859 g and 9.347 g and 7.27 g and 8.193 g and 8.745 g and 8.636 g and 8.349 g and 8.711 g and 8.055 g and 7.728 g and 8.238 g and 8.802 g and 8.338 g and 9.482 g
Liver weight ([2]; PK study, males, 60 mg/kg/day, individual animals): 11.319 g and 10.601 g and 11.37 g and 12.154 g and 11.768 g and 12.437 g and 11.213 g and 11.313 g and 11.86 g and 10.827 g and 10.923 g and 10.921 g and 10.76 g and 12.104 g and 11.841 g and 10.238 g and 12.991 g and 11.082 g
Liver weight ([2]; PK study, males, 200 mg/kg/day, individual animals): 14.027 g and 16.129 g and 13.438 g and 12.573 g and 14.48 g and 14.447 g and 11.375 g and 14.317 g and 13.757 g and 13.38 g and 14.677 g and 13.312 g and 12.998 g and 12.7 g and 12.791 g and 13.174 g and 13.587 g and 12.628 g
decrease of exposure at later timepoints ([2]; day 3 to day 7 vs day 1): up to 11 fold
Increased mitoses, hepatocellular: animals affected ([2]; in order: females 60, 200 mg/kg/day): 1
Hypertrophy, centrilobular: animals affected ([2]; in order: males 60, 200 (n=18), females 60 (n=18), 200 (n=17) mg/kg/day): 18 and 14 and 17
Extramedullary hematopoiesis: animals affected ([2]; in order: males 60, 200, females 60, 200 mg/kg/day): 10 and 14 and 9 and 13
Necrosis, hepatocellular: animals affected ([2]; in order: males 60, females 60, 200 mg/kg/day): 1
CL, apparent clearance [3]: 1.25 L/h
Tk0, absorption time [3]: 0.364 h
Vc, apparent central volume [3]: 2.25 L
Vp1, apparent peripheral volume [3]: 799 L
Vp2, apparent second peripheral volume [3]: 1.81 L
minimum inoculum for resistance development [4]: 10^9
Frequency (# of parasite positive flasks or wells) ([4]; 1x10^5 Dd2-B2, 15 nM): 0/24
Frequency (# of parasite positive flasks or wells) ([4]; 1x10^7 Dd2-B2, 15-22 nM / 10.5-14 nM): 0/3
Frequency (# of parasite positive flasks or wells) ([4]; 1x10^8 Dd2-B2, 10.5-14 nM): 0/3
Frequency (# of parasite positive flasks or wells) ([4]; 1x10^9 Dd2-B2, 12-27 nM): 3/3
Frequency (# of parasite positive flasks or wells) ([4]; NF54, 7 nM): 2/2
